Measurements from paper PMC11768629, “Potential Interaction of Pinocembrin with Drug Transporters and Hepatic Drug-Metabolizing Enzymes” (Pharmaceuticals, 2025).
pIC50: −log10 of the molar value.

How the values were obtained:
[1] = target: T1, hOCT2 (Homo sapiens, UniProt O15244); assay: Cis-inhibition assay, 3H-MPP+ uptake in hOCT2-CHO-K1 cells; type: cell-based; settings: pinocembrin
T1 construct: host or cells: CHO-K1
Description: (§1) Next, the effects of pinocembrin on the transport function of renal drug transporters, including hOAT1, hOAT3, hOCT1, hOCT2, hMATE1, and hMATE2, were determined.
(§2) A cell monolayer comprising hOAT1-MDCK, hOAT3-MDCK, hOCT1-CHO-K1, hOCT2-CHO-K1, hMATE1-CHO-K1, hMATE2-CHO-K1, and mock cells were utilized for the uptake experiments. The cells were washed three times with a buffer containing (in mM) 140 NaCl, 5 KCl, 0.4 MgSO4, 0.5 MgCl2, 1 CaCl2, 0.3 Na2HPO4, 0.4 KH2PO4, 6 D-glucose, and 4 NaHCO3 at pH 7.4 and incubated at 37 °C for 15 min. After incubation, the hOAT1-MDCK and hOAT3-MDCK cells were incubated for 10 min with ^3H-PAH and ^3H-estrone sulfate, a substrate of hOAT1 and hOAT3, respectively. The hOCT1-CHO-K1 and hOCT2-CHO-K1 cells were incubated with ^3H-MPP^+, a substrate of OCT1 and OCT2, for five minutes. The functions of MATE1 and MATE2 were determined by incubating the hMATE1-CHO-K1 and hMATE2-CHO-K1 cells with a buffer containing ^3H-MPP^+, a substrate of MATE1 and MATE2, at pH 8.5 for five minutes. The cells were washed three times with an ice-cold buffer to stop the transport function. The cells were lyzed with 0.4 N NaOH for at least four hours. The samples were collected and transferred to vials containing a liquid scintillation cocktail to measure radioactivity by a β-counter (Packard BioScience, Wellesley, MA, USA). […]

[2] = test system: hOAT3-MDCK cells; assay: Cell viability assay (MTT) in hOAT3-MDCK cells; type: cell-based, canine; settings: pinocembrin 1, 10 and 50 μM, compared to vehicle-treated cells
Description: (§3) The hOAT1-MDCK cells and hOAT3-MDCK cells were treated with 1, 10, and 50 μM pinocembrin for 24 h, followed by a measurement of ^3H-PAH and ^3H-estrone sulfate cellular accumulation. […] The inhibitory effect of pinocembrin occurred in a concentration-dependent manner.
We determined whether the inhibitory effect of pinocembrin on hOAT1 and hOAT3. We studied whether pinocembrin could reduce the renal toxicity of tenofovir, a substrate of hOAT1 and hOAT3 known for inducing renal tubular dysfunction.
The confluent cells in 96-well plates were treated with pinocembrin for 48 h at 37 °C. After that, the cells were incubated with 0.5 mg/mL MTT solution for four hours. The MTT solution was removed, and DMSO (100 µL) was added to dissolve the crystal formazan. The formazan content was detected at a wavelength of 570 nm using a microplate reader. Cell viability was reported as a percentage of the vehicle-treated cells.

[3] = test system: CYP2D6; parameters: method as in PMID 34069400, doi:10.5562/cca3652, PMID 26626242; settings: cited from earlier work
[4] = target: T2, hOCT1 (Homo sapiens, UniProt O15245); assay: Cis-inhibition assay, 3H-MPP+ uptake in hOCT1-CHO-K1 cells; type: cell-based; settings: pinocembrin
T2 construct: host or cells: CHO-K1
T2 sequence (O15245 whole entry): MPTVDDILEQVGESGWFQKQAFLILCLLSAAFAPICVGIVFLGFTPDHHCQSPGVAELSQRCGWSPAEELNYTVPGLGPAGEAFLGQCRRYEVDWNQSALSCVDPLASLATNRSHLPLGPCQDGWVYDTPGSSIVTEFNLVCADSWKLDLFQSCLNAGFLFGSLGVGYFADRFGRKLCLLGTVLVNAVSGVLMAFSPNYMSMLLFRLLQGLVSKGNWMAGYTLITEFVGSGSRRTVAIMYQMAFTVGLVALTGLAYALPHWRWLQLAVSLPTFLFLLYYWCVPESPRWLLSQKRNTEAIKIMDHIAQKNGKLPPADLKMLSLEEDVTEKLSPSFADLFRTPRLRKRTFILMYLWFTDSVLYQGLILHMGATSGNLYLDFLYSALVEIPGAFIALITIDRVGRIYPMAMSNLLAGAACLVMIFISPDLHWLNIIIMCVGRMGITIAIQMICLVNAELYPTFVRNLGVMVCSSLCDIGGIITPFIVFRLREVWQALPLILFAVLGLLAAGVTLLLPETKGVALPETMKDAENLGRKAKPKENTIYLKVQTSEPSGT
Description: as §1, §2

[5] = target: T3, CYP2C9 (Homo sapiens, UniProt P11712); assay: Cell-free CYP450 inhibition assay, CYP2C9; type: biochemical; settings: cell-free fluorescent probe assay, BACULOSOMES
T3 construct: purchased Life Technologies
T3 sequence (P11712 whole entry): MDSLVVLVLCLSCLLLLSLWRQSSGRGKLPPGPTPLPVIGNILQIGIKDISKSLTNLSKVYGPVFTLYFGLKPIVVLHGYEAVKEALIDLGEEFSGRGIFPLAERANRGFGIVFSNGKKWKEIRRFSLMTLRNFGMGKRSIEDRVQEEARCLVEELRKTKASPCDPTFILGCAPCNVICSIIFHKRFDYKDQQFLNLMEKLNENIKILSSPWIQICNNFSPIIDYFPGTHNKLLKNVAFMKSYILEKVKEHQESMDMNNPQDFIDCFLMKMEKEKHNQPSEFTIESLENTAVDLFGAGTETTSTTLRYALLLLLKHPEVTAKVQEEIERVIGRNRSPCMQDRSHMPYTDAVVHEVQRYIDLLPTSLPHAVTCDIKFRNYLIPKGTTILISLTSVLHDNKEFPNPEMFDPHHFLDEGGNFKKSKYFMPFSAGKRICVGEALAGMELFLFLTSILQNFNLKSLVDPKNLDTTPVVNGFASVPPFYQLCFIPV
Description: To determine whether pinocembrin influences the catalytic activity of CYP450 enzymes, fluorescent probe reaction assays were performed using varying concentrations of pinocembrin. […] In addition, molecular docking was conducted to better understand the binding mode and interactions between pinocembrin and human CYP2C19.
The CYP450 inhibitory activity of pinocembrin was determined using a P450 screening kit (Life Technologies; Carlsbad, CA, USA). Varied concentrations of pinocembrin were prepared in methanol. […] The fluorescence intensities were monitored every minute for 60 min at room temperature. The percentage of inhibition was calculated according to the following equation: % Inhibition=(1−X−B/A−B)×100% where X is the fluorescence intensity observed in the presence of pinocembrin.

[6] = target: T4, hOAT1 (Homo sapiens, UniProt Q4U2R8); assay: Pinocembrin treatment followed by 3H-PAH accumulation in hOAT1-MDCK cells; type: cell-based; settings: 1, 10 and 50 μM for 24 h, concentration-dependent, compared with vehicle
T4 construct: host or cells: MDCK
T4 sequence (Q4U2R8 1-563): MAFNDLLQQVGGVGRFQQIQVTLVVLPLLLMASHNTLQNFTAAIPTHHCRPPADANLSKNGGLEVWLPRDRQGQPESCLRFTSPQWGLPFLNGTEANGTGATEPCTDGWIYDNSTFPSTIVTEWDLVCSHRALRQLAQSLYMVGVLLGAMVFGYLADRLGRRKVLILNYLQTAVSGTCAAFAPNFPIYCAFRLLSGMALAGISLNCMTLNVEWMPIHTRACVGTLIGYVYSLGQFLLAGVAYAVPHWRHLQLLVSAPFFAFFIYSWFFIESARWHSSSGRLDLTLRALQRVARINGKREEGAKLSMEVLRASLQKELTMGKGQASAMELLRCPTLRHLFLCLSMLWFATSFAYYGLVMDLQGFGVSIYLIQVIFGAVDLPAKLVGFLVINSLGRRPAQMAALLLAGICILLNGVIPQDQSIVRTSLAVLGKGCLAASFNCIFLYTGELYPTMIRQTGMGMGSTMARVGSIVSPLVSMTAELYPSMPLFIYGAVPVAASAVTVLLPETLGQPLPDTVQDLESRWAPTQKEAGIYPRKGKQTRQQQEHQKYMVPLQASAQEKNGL
Description: as §3
as §2, with “The cells were lyzed with 0.4 N NaOH for at least four hours.” left out

[7] = target: T5, hMATE1 (Homo sapiens, UniProt Q96FL8); assay: Cis-inhibition assay, 3H-MPP+ uptake in hMATE1-CHO-K1 cells; type: cell-based; settings: pinocembrin, pH 8.5
T5 construct: host or cells: CHO-K1
T5 sequence (Q96FL8 whole entry): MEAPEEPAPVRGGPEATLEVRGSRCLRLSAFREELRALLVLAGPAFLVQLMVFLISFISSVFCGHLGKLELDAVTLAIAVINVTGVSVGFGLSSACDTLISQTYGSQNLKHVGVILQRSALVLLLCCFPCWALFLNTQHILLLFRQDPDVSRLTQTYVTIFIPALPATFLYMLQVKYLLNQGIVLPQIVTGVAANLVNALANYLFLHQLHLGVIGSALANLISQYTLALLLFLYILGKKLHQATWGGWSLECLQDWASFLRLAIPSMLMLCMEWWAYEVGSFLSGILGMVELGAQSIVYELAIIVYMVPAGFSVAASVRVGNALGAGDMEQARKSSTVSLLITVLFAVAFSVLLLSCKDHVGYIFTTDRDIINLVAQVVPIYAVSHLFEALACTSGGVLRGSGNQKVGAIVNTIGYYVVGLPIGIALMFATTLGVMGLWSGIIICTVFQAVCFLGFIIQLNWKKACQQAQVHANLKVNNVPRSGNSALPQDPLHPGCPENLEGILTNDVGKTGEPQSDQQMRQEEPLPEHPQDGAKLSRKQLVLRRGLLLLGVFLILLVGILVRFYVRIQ
Description: as §1, §2

T1 sequence (O15244 whole entry): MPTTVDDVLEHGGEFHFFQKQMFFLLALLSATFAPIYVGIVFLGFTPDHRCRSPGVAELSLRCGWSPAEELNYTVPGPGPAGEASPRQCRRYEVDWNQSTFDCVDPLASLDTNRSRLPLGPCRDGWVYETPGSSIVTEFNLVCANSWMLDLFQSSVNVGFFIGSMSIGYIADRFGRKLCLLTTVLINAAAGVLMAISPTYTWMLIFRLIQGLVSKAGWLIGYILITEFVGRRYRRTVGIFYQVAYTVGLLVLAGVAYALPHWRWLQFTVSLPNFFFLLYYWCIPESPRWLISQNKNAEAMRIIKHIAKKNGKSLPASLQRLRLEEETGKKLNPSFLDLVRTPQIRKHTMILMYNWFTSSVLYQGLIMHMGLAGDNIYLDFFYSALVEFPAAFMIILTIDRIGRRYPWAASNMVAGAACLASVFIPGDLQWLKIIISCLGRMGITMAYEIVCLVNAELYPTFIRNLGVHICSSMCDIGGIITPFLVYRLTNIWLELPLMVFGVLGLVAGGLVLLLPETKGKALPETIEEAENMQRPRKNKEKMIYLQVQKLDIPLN

hOCT2-mediated uptake of 3H-MPP+ [1]: did not alter | hOCT1-mediated uptake of 3H-MPP+ [4]: did not alter | pIC50 [5]: 3.46 | 3H-PAH accumulation after pinocembrin treatment [6]: significantly decreased | hMATE1-mediated uptake of 3H-MPP+ [7]: did not alter
SMILES: O=C1C[C@@H](c2ccccc2)Oc2cc(O)cc(O)c21 [pinocembrin]
cell viability [2]: did not affect cell viability | effect on the activity of CYP2D6 [3]: inhibits the activities
